ChEMBL document CHEMBL2074437, “Expression and transport properties of the human ileal and renal sodium-dependent bile acid transporter” (Am J Physiol, 1998)

Legend:
Type in all cases: functional, cell-based
[1] = biological target: T1, Ileal sodium/bile acid cotransporter (Homo sapiens, UniProt Q12908); assay: TP_TRANSPORTER: inhibition of Taurocholate uptake in ASBT-expressing COS cells
T1 sequence (Q12908 whole entry): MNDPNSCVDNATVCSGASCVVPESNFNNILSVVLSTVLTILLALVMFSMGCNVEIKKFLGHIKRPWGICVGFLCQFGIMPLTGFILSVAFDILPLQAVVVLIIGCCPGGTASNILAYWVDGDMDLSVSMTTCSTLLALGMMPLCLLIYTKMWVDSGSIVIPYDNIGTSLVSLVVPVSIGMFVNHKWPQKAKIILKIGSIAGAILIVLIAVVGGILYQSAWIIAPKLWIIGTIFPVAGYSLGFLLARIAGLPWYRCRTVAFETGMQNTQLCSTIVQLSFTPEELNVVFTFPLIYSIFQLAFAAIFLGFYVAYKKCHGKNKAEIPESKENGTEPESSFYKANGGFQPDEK

[2] = substrate: C[C@H](CCC(=O)NCC(=O)O)[C@H]1CC[C@H]2[C@@H]3[C@@H](O)C[C@@H]4C[C@H](O)CC[C@]4(C)[C@H]3CC[C@]12C; assay: (§1) TP_TRANSPORTER: uptake in ASBT-expressing COS cells
[3] = substrate: C[C@H](CCC(=O)NCC(=O)O)[C@H]1CC[C@H]2[C@@H]3CC[C@@H]4C[C@H](O)CC[C@]4(C)[C@H]3C[C@H](O)[C@]12C; assay: as §1
[4] = substrate: C[C@H](CCC(=O)NCC(=O)O)[C@H]1CC[C@H]2[C@@H]3[C@H](O)C[C@@H]4C[C@H](O)CC[C@]4(C)[C@H]3CC[C@]12C; assay: as §1

## C[C@H](CCC(=O)O)[C@H]1CC[C@H]2[C@@H]3CC[C@@H]4C[C@H](O)CC[C@]4(C)[C@H]3C[C@H](O)[C@]12C [DEOXYCHOLIC ACID]
[1]
  Ki: 6.3 µM
[1]; cos
  Ki: 6.3 µM

## C[C@H](CCC(=O)O)[C@H]1CC[C@H]2[C@@H]3[C@@H](O)C[C@@H]4C[C@H](O)CC[C@]4(C)[C@H]3CC[C@]12C [URSODIOL]
[1]
  Ki: 75 µM

## O=C1OC(c2ccc(O)c(S(=O)(=O)O)c2)(c2ccc(O)c(S(=O)(=O)O)c2)c2c(Br)c(Br)c(Br)c(Br)c21 [SULFOBROMOPHTHALEIN SODIUM]
[1]
  Ki: 144 µM

## C[C@H](CCC(=O)NCCS(=O)(=O)O)[C@H]1CC[C@H]2[C@@H]3CC[C@@H]4C[C@H](O)CC[C@]4(C)[C@H]3C[C@H](O)[C@]12C [TAURODEOXYCHOLIC ACID]
[1]
  Ki: 17.2 µM

## C[C@H](CCC(=O)O)[C@H]1CC[C@H]2[C@@H]3[C@H](O)C[C@@H]4C[C@H](O)CC[C@]4(C)[C@H]3CC[C@]12C [CHENODIOL]
[1]
  Ki: 3.3 µM

## C[C@H](CCC(=O)NCCS(=O)(=O)O)[C@H]1CC[C@H]2[C@@H]3[C@@H](O)C[C@@H]4C[C@H](O)CC[C@]4(C)[C@H]3CC[C@]12C [TAURURSODIOL]
[1]
  Ki: 28 µM

## C[C@H](CCC(=O)NCCS(=O)(=O)O)[C@H]1CC[C@H]2[C@@H]3[C@H](O)C[C@@H]4C[C@H](O)CC[C@]4(C)[C@H]3CC[C@]12C [TAUROCHENODEOXYCHOLATE]
[1]
  Ki: 6.1 µM

B1: Ileal sodium/bile acid cotransporter (Homo sapiens) (protein)
chain: T1 sequence (Q12908 whole entry)
[2]
  Km: 4.1 µM
[3]
  Km: 2 µM
[4]
  Km: 5.7 µM
